These results are taken from US10882826B2, “Quinolinone or quinazolinone comprising antibiofilm compositions, compounds and methods and uses relating thereto” (University College Cork—National University of Ireland, priority 2015, dated 2021).

The subject of series [1] is C. albicans strain SC5314 biofilm. Kind of series: XTT metabolic assay of C. albicans biofilm. Particulars: for XTT result, Mean (MeOH control = 1) / Absorbance at 492 nm, Mean (XTT): C. albicans biofilm; for Absorbance at 492 nm, Mean (XTT): test compound 100 μM, 24 hr, MeOH control 0.647, untreated 0.851; for effectiveness against fungal biofilms formed by Candida albicans (in words): summary statement. The format is cell-based, Candida albicans. Here is the method:
C. albicans strain SC5314 was sub-cultured from 15% (v/v) glycerol stocks at −80° C. onto Yeast Peptone Dextrose (YPD) medium [1% (w/v) yeast extract, 2% (w/v) peptone and 2% (w/v) dextrose] and incubated at 30° C. overnight.
The test compounds in desiccated form were re-suspended in Methanol to create a 10 mM stock. […]
The ability of some of the compounds detailed in example 1 to disrupt Candida albicans was tested using Confocal Scanning Laser Microscopy and an XTT Metabolic Assay. The XTT assay is a commonly used quantitative method assessing Candida biofilm mass and growth often in response to novel drug therapies.
C. albicans biofilm formation was carried out in 96 well plates by a method of the prior art. Briefly, C. albicans was inoculated into Yeast Nitrogen Base [10% (w/v)] and glucose/maltose [10% (w/v)] and incubated overnight at 30° C. Seeding densities for all subsequent experiments (N=3) were OD600=0.05. Cells were grown in Yeast Nitrogen Base supplemented with 1 M Phosphate buffer and acetyl-D-glucosamine (YNB-NP) along with appropriate volumes of test compound to provide the desired concentration. Cells were cultured in 96 well plates for 1 hr at 37° C. to facilitate yeast attachment. After this incubation, the supernatants were aspirated, the wells washed twice with YNB-NP media, and fresh media with the same concentration of test compound added to the appropriate wells. The plate was incubated for 24 hr at 37° C. The next day, the cultures were aspirated and the wells washed once with YNB-NP media.
C. albicans biofilm quantification was carried out in 96 well plates using a semi-quantitative Tetrazolium salt, 2,3-bis-(2-methoxy-4-nitro-5-sulfophenyl)-2H tetrazolium-5-carboxanilide inner salt (XTT) reduction assay (Hawser, Tunney et al, Antimicrob Agents Chemother. 2004 May; 48(5):1879-81). XTT (0.01 g) was dissolved in sterile water (20 ml) and filter sterilized. 10 μl of Menadione dissolved in Acetone was added to the XTT solution, just before use. The XTT-Menadione Solution (100 μl) was added to each well. The plate was incubated in the dark at 37° C. for up to 2 hr to allow for colour development. The OD492 nm was recorded for each well. Experiments were repeated at least three times, with at least eight technical replicates.
Experiments were first carried out using the test compound at concentration of 100 μM.

Another series concerns mammalian cells. Briefly: Cytotoxicity towards mammalian cells (summary statement). The format is cell-based. Here is the method: Lactate dehydrogenase (LDH) release from IB3 lung epithelial cells was assayed as a measure of cytotoxicity using an LDH colorimetric kit (Roche) according to manufacturers' instructions. Briefly, IB3-1 cells were seeded onto 96 well plates and treated with methanol (control) and test compounds (100 μM). Following 16 hr incubation at 37° C. and 5% CO2, supernatants were removed and added to catalyst reaction mixture in a fresh plate and further incubated at 37° C. and 5% CO2 for 30 mins to allow for colour development. After this period, the plate was analysed on an ELISA plate reader at OD490 nm. Cytotoxicity was expressed as a percentage of cells treated with 0.1% (v/v) Triton (100% cytotoxicity). The results are detailed in table 3:
The above experiments were repeated, testing some compounds against further cell lines (A549, DU145 and HeLa).

Series [2] deals with pqsA-lacZ promoter fusion. Kind of series: Promoter fusion based expression analysis (pqsA-lacZ, Miller units). The format is cell-based, P. aeruginosa. Particulars: PAO1 pqsA-pqsA-lacZ strain, 100 μM, overnight; methanol control 12287. The protocol: (§1) P. aeruginosa strains, PAO1 and pqsA mutant, containing the chromosomally inserted pqsA-lacZ promoter fusion on plasmid pUC18-mini-Tn7, were sub-cultured from glycerol stocks onto LB agar plates, supplemented with Carbenicillin (200 μg/ml) and X-gal (40 μg/ml), and incubated at 37° C. overnight. Single colonies were inoculated into LB broth (20 ml), supplemented with Carbenicillin (200 μg/ml), and incubated at 37° C., shaking at 180 rpm overnight. For subsequent experiments, the OD600 nm was recorded and a starting OD600 nm of 0.02 was inoculated into fresh LB broth, supplemented with Carbenicillin (200 μg/ml) and incubated at 37° C., shaking at 180 rpm.
Promoter fusion analyses were performed in a 96-well format. Briefly, overnight cultures of wild-type PAO1 pqsA-lacZ (pLP0996) and mutant strain PAO1 pqsA^− pqsA-LacZ were diluted to OD600 nm=0.02 in LB. Test compounds at 100 μM final concentration were added, mixed, aliquoted into 96 well plates and incubated overnight at 37° C. with shaking. The next day, OD600 nm values were recorded in a plate reader. Aliquots of cells (0.02 ml) were permeabilised [100 mM dibasic sodium phosphate (Na2HPO4), 20 mM KCl, 2 mM MgSO4, 0.8 mg/mL CTAB (hexadecyltrimethylammonium bromide), 0.4 mg/mL sodium deoxycholate, 5.4 μL/mL beta-mercaptoethanol] and added to substrate solution [60 mM Na2HPO4, 40 mM NaH2PO4, 1 mg/mL o-nitrophenyl-β-D-Galactoside (ONPG), 2.7 μL/mL β-mercaptoethanol]. The kinetics of colour development was monitored and the reactions were stopped using 1M NaCO3. OD420 nm were recorded as above. Miller units were calculated using the following equation; 1000×[OD420 nm/(OD600 nm)×0.02 ml×reaction time (mins)].
(§2) The phenazine production levels and Miller units in the PAO1 pqsA-pqsA-lacZ strain are detailed in table 5.
(§3) The virulence of compounds B2, C13 and C15 towards P. aeruginosa was assessed using an analogous method.

Series [3] has as its system P. aeruginosa PAO1 pqsA-pqsA-lacZ strain. Kind of series: Phenazine extraction (phenazine production). The format is cell-based. Particulars: PAO1 pqsA-pqsA-lacZ strain, test compounds 10 μM, 24 hr; methanol control 0.080. Here is the method: as §1
P. aeruginosa strains were cultured as described above for 24 hr, with the addition of test compounds (10 μM). Cultures were centrifuged at 4000 rpm for 10 minutes and the cell free supernatant (5 ml) removed. Chloroform (3 ml) was added, and mixed by vortex. After centrifugation at 4000 rpm for 5 mins, the lower aqueous phase was transferred to 0.2 M HCl (2 ml). Samples were mixed by vortex and centrifuged at 4000 rpm for 5 mins to separate the phases. An aliquot of the top phase (1 ml) was removed and spectrophotmetrically analysed at OD570 nm. Phenazine production was calculated using the following formula: OD570 nm×2×17.072 and the units expressed in μg/ml.
as §2, §3

Molecules are shown by their SMILES.

Regarding `CCCCCCCc1nc2ccccc2c(=O)n1N` [Compound C2], the “XTT result, Mean (MeOH control = 1)” value was found to be 0.68 in series [1] (10 μM), 0.38 in series [1] (50 μM) and 0.25 in series [1] (100 μM). The “Absorbance at 492 nm, Mean (XTT)” value in series [1] came out at 0.178. Also, in series [1], the “effectiveness against fungal biofilms formed by Candida albicans (in words)” value (“effectiveness” for short) is listed as “effective”. In addition, the “cytotoxicity towards mammalian cells (in words)” value in the series with mammalian cells is given as “reduced cytotoxicity”. In addition, in series [2], the “Miller Units, Mean” value came out at 16027 Miller Units. In series [3], the “Phenazine, Mean” value is 0.541 µg/mL.
On to `CCCCCCCc1cc(=O)c2cc(Cl)ccc2[nH]1` [Compound C4], for which the “XTT result, Mean (MeOH control = 1)” value is given as 0.86 in series [1] (10 μM), 0.67 in series [1] (50 μM) and 0.58 in series [1] (100 μM). Moreover, the “Absorbance at 492 nm, Mean (XTT)” value in series [1] was determined as 0.302. For the same compound, the “effectiveness” value in series [1] is listed as “effective”. Besides, the “cytotoxicity towards mammalian cells (in words)” value with mammalian cells is recorded as “reduced cytotoxicity”. For the same compound, the “Miller Units, Mean” value in series [2] came out at 35489 Miller Units. Also, the “Phenazine, Mean” value in series [3] was 0 µg/mL.
Consider `CCCCCCCc1cc(=O)c2cccc(Cl)c2[nH]1` [Compound C5], for which, in series [1], the “Absorbance at 492 nm, Mean (XTT)” value is 0.242 and the “effectiveness” value is recorded as “effective”. For the same compound, the “cytotoxicity towards mammalian cells (in words)” value in the series with mammalian cells is “reduced cytotoxicity”. For the same compound, in series [2], the “Miller Units, Mean” value came out at 11940 Miller Units. Also, the “Phenazine, Mean” value in series [3] is 0 µg/mL.
